Source: PMC5053523, “In Vitro Antibacterial Activity of Rhodanine Derivatives against Pathogenic Clinical Isolates” (PLoS ONE, 2016)
Converted amounts (≈) assume the structure as drawn. Like-named read-outs stand apart in the source and are kept apart here.

How the values were obtained:
Format in all cases: cell-based
[1] = system: vancomycin resistant enterococci (VRE) E. faecium; experiment: Broth microdilution MIC/MBC, VRE E. faecium; details: for MIC: read-out: MIC
Pseudomonas aeruginosa [2] = experiment: MIC with/without PMBN, Pseudomonas aeruginosa
Procedure, shortened: (§1)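 Sub-MIC colistin or PMBN added to broth MIC tests of rhodanines and reference antibiotics against Gram-negative strains; AcrAB efflux-deficient E. coli SM1411ΔacrAB also tested.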

[3] = system: Vancomycin Resistant Staphylococcus aureus (VRSA); experiment: Broth microdilution MIC/MBC, VRSA; details: for MBC / MIC: VRSA
Pseudomonas aeruginosa [4] = experiment: MIC with/without sub-MIC colistin, Pseudomonas aeruginosa
Procedure, shortened: as §1

Clostridium difficile = experiment: MIC against Clostridium difficile, anaerobic broth dilution; details: Clostridioides difficile
Procedure, shortened: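 Clinical C. difficile isolates grown anaerobically 48 h at 37 °C, suspended to 0.5 McFarland and diluted 1:300 in pre-reduced supplemented Brain Heart Infusion broth. Compounds serially diluted; plates incubated anaerobically at 37 °C for 48 h. MIC = lowest concentration with no visible growth.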

[5] = system: methicillin-resistant Staphylococcus aureus (MRSA); experiment: Broth microdilution MIC/MBC, MRSA
K. pneumoniae = experiment: Broth microdilution MIC, K. pneumoniae
B. licheniformis = experiment: Broth microdilution MIC/MBC, B. licheniformis; details: Bacillus licheniformis; for MBC: read-out: MBC; for MIC: read-out: MIC
Acinetobacter baumannii = experiment: MIC with/without PMBN, Acinetobacter baumannii
Procedure, shortened: as §1

[6] = system: vancomycin resistant enterococci (VRE) E. faecalis; experiment: Broth microdilution MIC/MBC, VRE E. faecalis; details: for MIC: read-out: MIC
P. aeruginosa = experiment: Broth microdilution MIC, P. aeruginosa; details: Pseudomonas aeruginosa
Salmonella Typhimurium = experiment: MIC with/without PMBN, Salmonella Typhimurium
Procedure, shortened: as §1

Klebsiella pneumoniae = experiment: MIC with/without sub-MIC colistin, Klebsiella pneumoniae
Procedure, shortened: as §1

[7] = E. faecium HM 968 Strain ERV102
[8] = E. faecium NR31914 Strain E0120
[9] = E. faecium Patient #1–1 NR-31903
[10] = NCIB9375, B. licheniformis Gibson 46 (NCIB 9375) NR-2494
[11] = NRS712, B. licheniformis NRS 712 NR-2499
[12] = E. faecalis NR31972 Strain SF 28073

`O=C(O)[C@H](Cc1ccccc1)N1C(=O)/C(=C/c2cccc(-c3ccc(Cl)c(Cl)c3)c2)SC1=S` [Rh 2] showed an MBC ([1]; E. faecium E417 HM-965) of 64 µM (≈ 32.9 µg/mL), an MIC ([1]; E. faecium E417 HM-965) of 4 µM (≈ 2.06 µg/mL) and an MBC ([1]; E. faecium E1071 NR-28978) of 64 µM (≈ 32.9 µg/mL). For the same compound, the MIC ([1]; E. faecium E1071 NR-28978) was 8 µM (≈ 4.12 µg/mL), the MBC [1, 7] was 64 µM (≈ 32.9 µg/mL) and the MIC [1, 7] was 4 µM (≈ 2.06 µg/mL). For the same compound, the MBC [1, 8] was 32 µM (≈ 16.5 µg/mL), the MIC [1, 8] was 4 µM (≈ 2.06 µg/mL) and the MBC [1, 9] was 64 µM (≈ 32.9 µg/mL). For the same compound, the MIC [1, 9] was 4 µM (≈ 2.06 µg/mL), the MIC (Pseudomonas aeruginosa [2]; Pseudomonas aeruginosa ATCC 9721, PMBN (+) 4 μg/mL, read-out: MIC) was >64 µM and the MIC (Pseudomonas aeruginosa [2]; Pseudomonas aeruginosa, ATCC9721) was > 128 µM. It also gave an MIC50 ([3]; 15 VRSA strains, read-out: MIC 50) of 4 µM (≈ 2.06 µg/mL), an MIC90 ([3]; 15 VRSA strains, read-out: MIC 90) of 4 µM (≈ 2.06 µg/mL) and an MBC ([3]; VRSA 1, read-out: MBC) of 8 µM (≈ 4.12 µg/mL). For the same compound, the MIC ([3]; VRSA 1, read-out: MIC) was 4 µM (≈ 2.06 µg/mL), the MBC ([3]; VRSA 2, read-out: MBC) was 4 µM (≈ 2.06 µg/mL) and the MIC ([3]; VRSA 2, read-out: MIC) was 4 µM (≈ 2.06 µg/mL). The MBC ([3]; VRSA 3a, read-out: MBC) was 16 µM (≈ 8.23 µg/mL), the MIC ([3]; VRSA 3a, read-out: MIC) was 4 µM (≈ 2.06 µg/mL) and the MBC ([3]; VRSA 3b, read-out: MBC) was 4 µM (≈ 2.06 µg/mL). For the same compound, the MIC ([3]; VRSA 3b, read-out: MIC) was 4 µM (≈ 2.06 µg/mL), the MBC ([3]; VRSA 4, read-out: MBC) was 4 µM (≈ 2.06 µg/mL) and the MIC ([3]; VRSA 4, read-out: MIC) was 4 µM (≈ 2.06 µg/mL). The MBC ([3]; VRSA 5, read-out: MBC) was 64 µM (≈ 32.9 µg/mL), the MIC ([3]; VRSA 5, read-out: MIC) was 4 µM (≈ 2.06 µg/mL) and the MBC ([3]; VRSA 6, read-out: MBC) was 16 µM (≈ 8.23 µg/mL). It also gave an MIC ([3]; VRSA 6, read-out: MIC) of 4 µM (≈ 2.06 µg/mL), an MBC ([3]; VRSA 7, read-out: MBC) of 32 µM (≈ 16.5 µg/mL) and an MIC ([3]; VRSA 7, read-out: MIC) of 4 µM (≈ 2.06 µg/mL). The MBC ([3]; VRSA 8, read-out: MBC) was 8 µM (≈ 4.12 µg/mL), the MIC ([3]; VRSA 8, read-out: MIC) was 4 µM (≈ 2.06 µg/mL) and the MBC ([3]; VRSA 9, read-out: MBC) was 32 µM (≈ 16.5 µg/mL). The MIC ([3]; VRSA 9, read-out: MIC) was 8 µM (≈ 4.12 µg/mL), the MBC ([3]; VRSA 10, read-out: MBC) was 32 µM (≈ 16.5 µg/mL) and the MIC ([3]; VRSA 10, read-out: MIC) was 4 µM (≈ 2.06 µg/mL). It also gave an MBC ([3]; VRSA 11a, read-out: MBC) of 4 µM (≈ 2.06 µg/mL), an MIC ([3]; VRSA 11a, read-out: MIC) of 4 µM (≈ 2.06 µg/mL) and an MBC ([3]; VRSA 11b, read-out: MBC) of 64 µM (≈ 32.9 µg/mL). The MIC ([3]; VRSA 11b, read-out: MIC) was 4 µM (≈ 2.06 µg/mL), the MBC ([3]; VRSA 12, read-out: MBC) was 32 µM (≈ 16.5 µg/mL) and the MIC ([3]; VRSA 12, read-out: MIC) was 4 µM (≈ 2.06 µg/mL). The MBC ([3]; VRSA 13, read-out: MBC) was 64 µM (≈ 32.9 µg/mL), the MIC ([3]; VRSA 13, read-out: MIC) was 4 µM (≈ 2.06 µg/mL) and the MIC (Pseudomonas aeruginosa [4]; Pseudomonas aeruginosa ATCC 921, colistin (+) […], read-out: MIC) was >64 µM. The MIC (Pseudomonas aeruginosa [4]; Pseudomonas aeruginosa, ATCC921) was > 128 µM, the MIC (Clostridium difficile; C. difficile HM-88) was 4 µM (≈ 2.06 µg/mL) and the MIC (Clostridium difficile; C. difficile HM-745) was 2 µM (≈ 1.03 µg/mL). It also gave an MIC (Clostridium difficile; C. difficile HM-746) of 2 µM (≈ 1.03 µg/mL), an MIC (Clostridium difficile; C. difficile Isolate-1 NR-13427) of 2 µM (≈ 1.03 µg/mL) and an MIC (Clostridium difficile; C. difficile Toxigenic Strain P8 NR-32888) of 8 µM (≈ 4.12 µg/mL). The MIC50 ([5]; 11 MRSA strains) was 4 µM (≈ 2.06 µg/mL), the MIC90 ([5]; 11 MRSA strains) was 4 µM (≈ 2.06 µg/mL) and the MBC ([5]; MRSA NRS 1) was 4 µM (≈ 2.06 µg/mL). The MIC ([5]; MRSA NRS 1) was 4 µM (≈ 2.06 µg/mL), the MBC ([5]; MRSA NRS 19) was 4 µM (≈ 2.06 µg/mL) and the MIC ([5]; MRSA NRS 19) was 4 µM (≈ 2.06 µg/mL). It also gave an MBC ([5]; MRSA NRS 37) of 4 µM (≈ 2.06 µg/mL), an MIC ([5]; MRSA NRS 37) of 4 µM (≈ 2.06 µg/mL) and an MBC ([5]; MRSA NRS 107) of 16 µM (≈ 8.23 µg/mL). For the same compound, the MIC ([5]; MRSA NRS 107) was 8 µM (≈ 4.12 µg/mL), the MBC ([5]; MRSA NRS 119) was 4 µM (≈ 2.06 µg/mL) and the MIC ([5]; MRSA NRS 119) was 4 µM (≈ 2.06 µg/mL). For the same compound, the MBC ([5]; MRSA NRS 382) was 4 µM (≈ 2.06 µg/mL), the MIC ([5]; MRSA NRS 382) was 4 µM (≈ 2.06 µg/mL) and the MBC ([5]; MRSA NRS 383) was 4 µM (≈ 2.06 µg/mL). The MIC ([5]; MRSA NRS 383) was 4 µM (≈ 2.06 µg/mL), the MBC ([5]; MRSA NRS 384) was 16 µM (≈ 8.23 µg/mL) and the MIC ([5]; MRSA NRS 384) was 4 µM (≈ 2.06 µg/mL). The MBC ([5]; MRSA NRS 385) was 4 µM (≈ 2.06 µg/mL), the MIC ([5]; MRSA NRS 385) was 4 µM (≈ 2.06 µg/mL) and the MBC ([5]; MRSA NRS 386) was 8 µM (≈ 4.12 µg/mL). It also gave an MIC ([5]; MRSA NRS 386) of 4 µM (≈ 2.06 µg/mL), an MBC ([5]; MRSA NRS 387) of 4 µM (≈ 2.06 µg/mL) and an MIC ([5]; MRSA NRS 387) of 4 µM (≈ 2.06 µg/mL). For the same compound, the MIC (K. pneumoniae; K. pneumoniae NR-15417) was >128 µM, the MIC (K. pneumoniae; Klebsiella pneumoniae) was > 128 µM and the MBC (B. licheniformis; [10]) was 2 µM (≈ 1.03 µg/mL). It also gave an MIC (B. licheniformis; [10]) of 2 µM (≈ 1.03 µg/mL), an MBC (B. licheniformis; [11]) of 4 µM (≈ 2.06 µg/mL) and an MIC (B. licheniformis; [11]) of 4 µM (≈ 2.06 µg/mL). For the same compound, the MIC (Acinetobacter baumannii; Acinetobacter baumannii ATCC BAA747, PMBN (+) 4 μg/mL, read-out: MIC) was >64 µM, the MIC (Acinetobacter baumannii; Acinetobacter baumannii ATCC BAA19606, PMBN (+) 4 μg/mL, read-out: MIC) was >64 µM and the MIC (Acinetobacter baumannii; Acinetobacter baumannii, ATCCBAA747) was > 128 µM. For the same compound, the MIC (Acinetobacter baumannii; Acinetobacter baumannii, ATCCBAA19606) was > 128 µM, the MBC ([6]; E. faecalis ERV103 HM-934) was 4 µM (≈ 2.06 µg/mL) and the MIC ([6]; E. faecalis ERV103 HM-934) was 4 µM (≈ 2.06 µg/mL). The MBC [6, 12] was 32 µM (≈ 16.5 µg/mL), the MIC [6, 12] was 4 µM (≈ 2.06 µg/mL) and the MBC ([6]; E. faecalis R712 HM-335) was 4 µM (≈ 2.06 µg/mL). The MIC ([6]; E. faecalis R712 HM-335) was 4 µM (≈ 2.06 µg/mL), the MBC ([6]; E. faecalis S613 HM-334) was 4 µM (≈ 2.06 µg/mL) and the MIC ([6]; E. faecalis S613 HM-334) was 4 µM (≈ 2.06 µg/mL). For the same compound, the MBC ([6]; E. faecalis TX0104 HM-201) was 4 µM (≈ 2.06 µg/mL), the MIC ([6]; E. faecalis TX0104 HM-201) was 4 µM (≈ 2.06 µg/mL) and the MIC (P. aeruginosa; ATCC9721) was > 128 µM. The MIC (P. aeruginosa; ATCC15442) was > 128 µM, the MIC (Salmonella Typhimurium; Salmonella Typhimurium ATCC 700720, PMBN (+) 4 μg/mL, read-out: MIC) was >128 µM and the MIC (Salmonella Typhimurium; Salmonella enterica, ATCC 700720 / TYPHIMURIUM) was > 128 µM. The MIC (Klebsiella pneumoniae; Klebsiella pneumoniae ATCC BAA 2146, colistin (+) […]) was >64 µM and the MIC (Klebsiella pneumoniae; Klebsiella pneumoniae, BAA2146) was > 128 µM.
